Ends that are not written are not given here.
Test system: Lactobacillus gasseri (FERM BP-11331)
Experiment: Growth-promoting effect on Lactobacillus gasseri in modified MRS medium (particle count)
Assay type: cell-based
Conditions: Comparative Example 1; dipeptide vs equimolar amino acid mixture, cultured as in Example 1
Description: Nitrogen sources in MRS medium were reduced to find a medium composition that achieves a total bacterial count of about 1.0×10^8 cell/mL to 1.0×10^9 cell/mL after culturing of each of the six bacterial strains Lactobacillus gasseri (FERNM BP-11331), Lactobacillus acidophilus (FERM BP-4981), Lactobacillus amylovorus (FERM BP-11255), Lactobacillus curvatus (NITE P-02033), Lactobacillus plantarum, and Lactobacillus brevis. This composition, named “modified MRS medium”, was used for the evaluation. Here, for the composition of the MRS medium, a composition described in a medium catalog provided by BD (Becton, Dickinson and Company) was used as a reference. The compositions of the MRS medium and the modified MRS medium are as follows. By chemical synthesis, 28 kinds of candidate peptides having the sequences shown below were provided. Each candidate peptide was added to the modified MRS medium at 0.25 mg/mL to provide a medium to be evaluated. The lactic acid bacterium Lactobacillus gasseri was inoculated at 1.0×10^7 cells/mL to the provided medium to be evaluated, and culture was carried out at a temperature of 37° C. for a culture period of 18 hours. The resulting culture was collected, and subjected to measurement of the particle concentration (particles/mL) as a characteristic value that can be used as an index of the bacterial cell growth, using a particle count analyzer (CDA-1000, Sysmex). The rate of increase (%) was calculated relative to a control value obtained using a medium to which no peptide was added, which was taken as 100%. Using the dipeptide LF (Leu-Phe) and an equimolar mixture of leucine (L) and phenylalanine (F), culture was carried out in the same manner as in Example 1, and the growth-promoting effects of the dipeptide and the amino acid mixture on the lactic acid bacterium were evaluated. Using a dipeptide (LF) as the peptide, the growth-promoting effect on a lactic acid bacterium was evaluated in the same manner except that the concentration of the dipeptide added was 0.1 mg/mL, 0.25 mg/mL, or 1.0 mg/mL.

Leu-Phe [LF] showed a Particle concentration of 3.88e+08 mL⁻¹.

Same assay, conditions: Comparative Example 1; dipeptide vs equimolar amino acid mixture; control = 100%

Leu-Phe [LF] was tested, and the Rate of increase was 121%.

Same assay, conditions: Example 1; peptide 0.25 mg/mL, 37° C., 18 hours, inoculum 1.0×10^7 cells/mL

In order of falling Particle concentration:
1. Val-Pro-Ala-Phe (VPAF; listed as Saccharomyces cerevisiae)  2.62e+08 mL⁻¹
2. Pro-Val-Phe [PVF]  2.51e+08 mL⁻¹
3. AGPQTF  2.5e+08 mL⁻¹
4. Leu-Phe [LF]  2.49e+08 mL⁻¹
5. Leu-Pro-Trp-Gly (LPWG; listed as Saccharomyces cerevisiae)  2.45e+08 mL⁻¹
6. APKPDYPIA (listed as Saccharomyces cerevisiae) [Ala-Pro-Lys-Pro-Asp-Tyr-Pro-Ile-Ala]  2.37e+08 mL⁻¹
7. Pro-Ser-Val-Phe (PSVF; listed as Saccharomyces cerevisiae)  2.32e+08 mL⁻¹
8. Pro-Val-Tyr [PVY]  2.27e+08 mL⁻¹

Same assay, conditions: Example 1; peptide 0.25 mg/mL, 37° C., 18 hours; control without peptide = 100%

In order of falling Rate of increase:
1. Val-Pro-Ala-Phe (VPAF; listed as Saccharomyces cerevisiae)  152%
2. Leu-Pro-Trp-Gly (LPWG; listed as Saccharomyces cerevisiae)  142%
3. APKPDYPIA (listed as Saccharomyces cerevisiae) [Ala-Pro-Lys-Pro-Asp-Tyr-Pro-Ile-Ala]  137%
4. Pro-Val-Phe [PVF]  137%
5. Pro-Ser-Val-Phe (PSVF; listed as Saccharomyces cerevisiae)  134%
6. AGPQTF  126%
7. Pro-Val-Tyr [PVY]  121%
8. Leu-Phe [LF]  118%

Same assay, conditions: Example 7; addition concentration 0.1 mg/mL

Substance Leu-Phe [LF] has a Particle concentration of 2.38e+08 mL⁻¹.

Same assay, conditions: Example 7; addition concentration 0.1 mg/mL; control = 100%

Substance Leu-Phe [LF] has a Rate of increase of 112%.

Same assay, conditions: Example 7; addition concentration 0.25 mg/mL

Leu-Phe [LF] was tested, and the Particle concentration was 2.49e+08 mL⁻¹.

Same assay, conditions: Example 7; addition concentration 0.25 mg/mL; control = 100%

Work on Leu-Phe [LF] yielded a Rate of increase of 118%.

Same assay, conditions: Example 7; addition concentration 1.0 mg/mL

Leu-Phe [LF] was tested, and the Particle concentration was 3.17e+08 mL⁻¹.

Same assay, conditions: Example 7; addition concentration 1.0 mg/mL; control = 100%

For Leu-Phe [LF], the Rate of increase was 150%.

Test system: Lactobacillus acidophilus (FERM BP-4981)
Experiment: Growth-promoting effect on Lactobacillus acidophilus in modified MRS medium (particle count)
Assay type: cell-based
Conditions: Example 2; peptide 0.25 mg/mL, 37° C., 18 hours
Description: Nitrogen sources in MRS medium were reduced to find a medium composition that achieves a total bacterial count of about 1.0×10^8 cell/mL to 1.0×10^9 cell/mL after culturing of each of the six bacterial strains Lactobacillus gasseri (FERNM BP-11331), Lactobacillus acidophilus (FERM BP-4981), Lactobacillus amylovorus (FERM BP-11255), Lactobacillus curvatus (NITE P-02033), Lactobacillus plantarum, and Lactobacillus brevis. This composition, named “modified MRS medium”, was used for the evaluation. Here, for the composition of the MRS medium, a composition described in a medium catalog provided by BD (Becton, Dickinson and Company) was used as a reference. The compositions of the MRS medium and the modified MRS medium are as follows. By chemical synthesis, 28 kinds of candidate peptides having the sequences shown below were provided. Each candidate peptide was added to the modified MRS medium at 0.25 mg/mL to provide a medium to be evaluated. The lactic acid bacterium Lactobacillus gasseri was inoculated at 1.0×10^7 cells/mL to the provided medium to be evaluated, and culture was carried out at a temperature of 37° C. for a culture period of 18 hours. The resulting culture was collected, and subjected to measurement of the particle concentration (particles/mL) as a characteristic value that can be used as an index of the bacterial cell growth, using a particle count analyzer (CDA-1000, Sysmex). The rate of increase (%) was calculated relative to a control value obtained using a medium to which no peptide was added, which was taken as 100%. For eight kinds of candidate peptides having the sequences shown below, the growth-promoting effect on a lactic acid bacterium was evaluated in the same manner as in Example 1 except that Lactobacillus acidophilus was used instead of Lactobacillus gasseri.

In order of rising Particle concentration:
1. Leu-Phe [LF]  8.75e+07 mL⁻¹
2. APKPDYPIA (listed as Saccharomyces cerevisiae) [Ala-Pro-Lys-Pro-Asp-Tyr-Pro-Ile-Ala]  9.73e+07 mL⁻¹
3. Pro-Ser-Val-Phe (PSVF; listed as Saccharomyces cerevisiae)  1e+08 mL⁻¹
4. Pro-Val-Phe [PVF]  1.01e+08 mL⁻¹
5. AGPQTF  1.02e+08 mL⁻¹
6. Leu-Pro-Trp-Gly (LPWG; listed as Saccharomyces cerevisiae)  1.03e+08 mL⁻¹
7. Val-Pro-Ala-Phe (VPAF; listed as Saccharomyces cerevisiae)  1.04e+08 mL⁻¹
8. Pro-Val-Tyr [PVY]  1.1e+08 mL⁻¹

Same assay, conditions: Example 2; peptide 0.25 mg/mL, 37° C., 18 hours; control = 100%

In order of falling Rate of increase:
1. Leu-Phe [LF]  121%
2. Leu-Pro-Trp-Gly (LPWG; listed as Saccharomyces cerevisiae)  113%
3. Pro-Val-Tyr [PVY]  113%
4. Val-Pro-Ala-Phe (VPAF; listed as Saccharomyces cerevisiae)  113%
5. Pro-Val-Phe [PVF]  111%
6. AGPQTF  105%
7. Pro-Ser-Val-Phe (PSVF; listed as Saccharomyces cerevisiae)  103%
8. APKPDYPIA (listed as Saccharomyces cerevisiae) [Ala-Pro-Lys-Pro-Asp-Tyr-Pro-Ile-Ala]  100%

Test system: Lactobacillus amylovorus (FERM BP-11255)
Experiment: Growth-promoting effect on Lactobacillus amylovorus in modified MRS medium (particle count)
Assay type: cell-based
Conditions: Example 3; peptide 0.25 mg/mL, 37° C., 18 hours
Description: Nitrogen sources in MRS medium were reduced to find a medium composition that achieves a total bacterial count of about 1.0×10^8 cell/mL to 1.0×10^9 cell/mL after culturing of each of the six bacterial strains Lactobacillus gasseri (FERNM BP-11331), Lactobacillus acidophilus (FERM BP-4981), Lactobacillus amylovorus (FERM BP-11255), Lactobacillus curvatus (NITE P-02033), Lactobacillus plantarum, and Lactobacillus brevis. This composition, named “modified MRS medium”, was used for the evaluation. Here, for the composition of the MRS medium, a composition described in a medium catalog provided by BD (Becton, Dickinson and Company) was used as a reference. The compositions of the MRS medium and the modified MRS medium are as follows. By chemical synthesis, 28 kinds of candidate peptides having the sequences shown below were provided. Each candidate peptide was added to the modified MRS medium at 0.25 mg/mL to provide a medium to be evaluated. The lactic acid bacterium Lactobacillus gasseri was inoculated at 1.0×10^7 cells/mL to the provided medium to be evaluated, and culture was carried out at a temperature of 37° C. for a culture period of 18 hours. The resulting culture was collected, and subjected to measurement of the particle concentration (particles/mL) as a characteristic value that can be used as an index of the bacterial cell growth, using a particle count analyzer (CDA-1000, Sysmex). The rate of increase (%) was calculated relative to a control value obtained using a medium to which no peptide was added, which was taken as 100%. For eight kinds of candidate peptides having the sequences shown below, the growth-promoting effect on a lactic acid bacterium was evaluated in the same manner as in Example 1 except that Lactobacillus amylovorus was used instead of Lactobacillus gasseri.

In order of rising Particle concentration:
1. APKPDYPIA (listed as Saccharomyces cerevisiae) [Ala-Pro-Lys-Pro-Asp-Tyr-Pro-Ile-Ala]  1.83e+08 mL⁻¹
2. Pro-Ser-Val-Phe (PSVF; listed as Saccharomyces cerevisiae)  1.92e+08 mL⁻¹
3. AGPQTF  1.93e+08 mL⁻¹
4. Pro-Val-Tyr [PVY]  1.98e+08 mL⁻¹
5. Pro-Val-Phe [PVF]  2.07e+08 mL⁻¹
6. Val-Pro-Ala-Phe (VPAF; listed as Saccharomyces cerevisiae)  2.07e+08 mL⁻¹
7. Leu-Phe [LF]  2.08e+08 mL⁻¹
8. Leu-Pro-Trp-Gly (LPWG; listed as Saccharomyces cerevisiae)  2.13e+08 mL⁻¹

Same assay, conditions: Example 3; peptide 0.25 mg/mL, 37° C., 18 hours; control = 100%

In order of falling Rate of increase:
1. Pro-Val-Tyr [PVY]  121%
2. AGPQTF  118%
3. Pro-Ser-Val-Phe (PSVF; listed as Saccharomyces cerevisiae)  118%
4. APKPDYPIA (listed as Saccharomyces cerevisiae) [Ala-Pro-Lys-Pro-Asp-Tyr-Pro-Ile-Ala]  112%
5. Leu-Pro-Trp-Gly (LPWG; listed as Saccharomyces cerevisiae)  111%
6. Leu-Phe [LF]  109%
7. Pro-Val-Phe [PVF]  108%
8. Val-Pro-Ala-Phe (VPAF; listed as Saccharomyces cerevisiae)  108%

— patent US20230151057A1, “LACTIC ACID BACTERIA GROWTH PROMOTER” (Asahi Group Holdings, Ltd., priority 2020, published 2023)
